What was measured:
Type in all cases: in vivo
[1] = system: intact hairless mouse skin; test: Transepidermal water loss after topical application; conditions: BrCBE 325 nmol topical once daily, after four daily applications
Procedure: (§1) To determine whether inhibitors of β-glucocerebrosidase would cause more profound effects than applications of exogenous GlcCER alone (examples 5&6), we next applied the specific, suicide inhibitor, bromoconduritol-B-epoxide (BrCBE) to intact hairless mouse skin (Simonsen Laboratories, Gilroy, Calif.) (Holleran, W. M. et al., J. Clin. Invest. (1993) 91:1656-1664). BrCBE (325 nmol in 20 μl propylene glycol:ethanol, 7:3 vols) was applied once daily for 0-14 days. (Holleran, W. M. et al. (1994) J. Clin. Inv. 93:1756-1764)
Transepidermal Water Loss was determined by using a MEECO electrolytic water analyzer (MEECO, Warrington, Pa.). Water loss measurements are recorded over a small area of skin (0.5cm^2) in parts per million/0.5cm^2 per hour over background.

β-glucocerebrosidase = target: T1, β-glucocerebrosidase (Mus musculus, UniProt P17439); test: Epidermal β-glucocerebrosidase activity after topical BrCBE; conditions: topical BrCBE 325 nmol once daily
T1 construct: from tissue; host or cells: epidermis of hairless mice (Simonsen Laboratories, Gilroy, Calif.)
T1 sequence (P17439 20-515): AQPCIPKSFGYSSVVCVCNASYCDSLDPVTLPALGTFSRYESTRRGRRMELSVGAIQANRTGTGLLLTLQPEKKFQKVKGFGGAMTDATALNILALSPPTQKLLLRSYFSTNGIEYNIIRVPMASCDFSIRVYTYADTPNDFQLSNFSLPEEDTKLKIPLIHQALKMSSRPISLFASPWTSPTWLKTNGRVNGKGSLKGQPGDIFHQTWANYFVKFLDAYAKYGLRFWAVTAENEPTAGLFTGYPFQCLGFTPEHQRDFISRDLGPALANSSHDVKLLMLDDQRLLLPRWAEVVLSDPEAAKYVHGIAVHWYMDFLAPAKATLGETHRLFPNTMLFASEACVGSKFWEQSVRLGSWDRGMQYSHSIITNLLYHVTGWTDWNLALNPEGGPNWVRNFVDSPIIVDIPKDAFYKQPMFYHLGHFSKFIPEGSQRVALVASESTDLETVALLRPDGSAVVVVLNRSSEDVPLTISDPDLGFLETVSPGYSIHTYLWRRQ
Procedure: as §1

hairless mouse skin = test: Appearance and texture of treated skin
Procedure: as §1

hairless mouse epidermis = test: Epidermal / stratum corneum lipid content (HPTLC/TLC)
Procedure: Hairless mice were treated with BrCBE for 5 days as described in Example 10. The following high performance thin layer chromatograph (HPTLC) system was developed for optimal separation of ceramides and glucosylceramides for quantitation by spectrodensitometry. Extracts were applied to precleaned 10 ×20 cm HPTLC plates, 0.5 cm from lower edge of the plate and fractionated sequentially in a horizontal developmental chamber (Camag, Muttenz, Switzerland) in the following solvent systems: 1) chloroform:methanol:acetic acid (190:9:1), v/v/v) to the top, twice; 2) chloroform:methanol:acetone (76:20:4, by volume) to 30 mm. Between each development, the plate was dried for 5 minutes on a hot plate (40° C.), cooled for 2 minutes, and equilibrated in the tank with the solvents for 3 minutes. After final development, the plates were dried, cooled, dipped in charring solution (1.5% cupric sulfate in acetic acid:sulfuric acid:orthophosphoric acid:water (50:10:10:30, by volume) for 15 seconds, dried (40° .C) for 5 minutes, and then charred at 180° C. for 15 minutes. Plates were scanned with a variable wavelength scanning densitometer (Camag, Muttenz, Switzerland). Lipid amounts for each fraction were estimated using ceramides 3 and 4, and galactosylceramides 1 and 2 as reference standards (Sigma Chemical Co., St. Louis, Mo.).
The epidermal glucosylceramide content was determined in mice treated with the topical β-glucocerebrosidase inhibitors. Mice were treated with CBE for one day as described in FIG. 22. The mice were sacrificed and whole skin was excised. Subcutaneous fascia and fat were scraped off, and the samples were placed dermis side down onto […] EDTA in PBS-CMF (pH 7.4) and incubated at 37° C. for 40 min. Skin was blotted dry with a tissue and the epidermis was removed by scraping with a surgical blade. The epidermis was minced, placed into microcentrifuge vials, immediately snap frozen and stored in liquid N2 until extracted.
For extraction the tissue was soaked in 7.6 ml Bligh/Dyer extraction media (2 ml chloroform, 4 ml Methanol, 1.6 ml H2O) overnight at room temperature. The following day the tissue was shaken for 20 min. and centrifuged for 10 min. the solvent was removed and the pellet was combined with 7.6 ml Bligh/Dyer media and again shaken and centrifuged. The solvents were combined with solvent from the soaks and filtered through pre-solvent-washed Whatman 43 filter paper, 2 ml chloroform and 2 ml H2O was added to each 7.6 ml quantity of the filtrate and shaken for 10 min. The samples were then centrifuged and the upper phase discarded. The lower phase was washed with 4 ml chloroform, 4 ml MetOH, and 3.6 ml H2O (shaken for 10 min and centrifuged). The upper phase was discarded. The lower phase was dried under N2 in a 47° C. water bath. The lipid was resuspended in chloroform and weighed on the Cahn balance.
TLC was performed using 15-20 μg samples and quantitated against standard glycosylceramide and 40 μg sample for sphingolipids (Holleran, W. M. et al. (1993) J. Clin. Invest. 91:1656-1664).
Both glucosylceramide and ceramide content was then determined in lower (stratum basale) and upper (stratum spinosum, stratum granulosum and stratum corneum) epidermis (FIG. 23). Following 24 hours of CBE treatment samples were excised following treatment (as in Example 16).

[2] = BrCBE 325 nmol/5cm^2/day, five days

For `OC1C(O)C(Br)C2OC2C1O` (stereo not shown) [BrCBE, bromoconduritol-B-epoxide], the “TEWL plateau level (defect in permeability barrier function)” value [1] was 10-15 times normal, the “epidermal β-glucocerebrosidase activity, of normal” value (β-glucocerebrosidase) was 5 % of normal and the “reduction of epidermal β-glucocerebrosidase activity” value (β-glucocerebrosidase) was “about 95%”. The inflammation or edema (hairless mouse skin; BrCBE-treated skin) was “no indication of inflammation or edema”, the skin moisture content (hairless mouse skin; BrCBE-treated skin) was “increased moisture content” and the “skin smoothness and softening of skin surface” value (hairless mouse skin; BrCBE-treated skin) was “marked increase”. The skin wrinkling (hairless mouse skin; BrCBE-treated vs vehicle-treated skin, visual inspection) was “reduced”, the “ceramide content, whole epidermis lipid extracts” value (hairless mouse epidermis; [2]) was “decrease” and the “epidermal glucosylceramides, whole epidermis lipid extracts” value (hairless mouse epidermis; [2]) was “increased”. For the same compound, the “increase in stratum corneum glucosylceramides” value (hairless mouse epidermis; BrCBE 5 days, vs vehicle-treated and/or untreated murine stratum corneum, FIG. 14) was “eight to ten”.

— patent US6399580B1, “Methods and compositions for stimulating tissue growth and epithelial moisturization” (The Regents of the University of California, priority 1994, dated 2002)
